Columns and labels:
[1] = system: NADPH oxidase (Nox); assay: Nox activity in synaptosomes by NADPH-dependent oxygen consumption (oximetry); assay type: biochemical, mouse
Procedure: Synaptosomal preparations. […] Mice were euthanized by exposure to a lethal dose of inhaled halothane, followed by cervical dislocation. Brains were rapidly removed, cortices dissected and homogenized in 10 volumes of ice-cold isolation buffer (0.32M sucrose, 1 mM EDTA, 10 mM Tris-HCl buffer, pH 7.4, 10 mM glucose). The homogenate was centrifuged at 3100 rpm for 3 min at 4° C., and the supernatant collected, and the pellet was re-homogenized in half the volume of isolation buffer and centrifuged again. Synaptosomal were then isolated as described (see reference 30, below) modified as follows, the pooled supernatants were mixed with PERCOLL™ (Sigma, St. Louis, Mo.) to a final concentration of 15%, and then layered onto a step gradient of 23% and 40% PERCOLL™, and centrifuged at 16,000 rpm for 5 minutes at 4° C. The uppermost band was extracted, rinsed in isolation buffer, centrifuged and resuspended in synaptosomal buffer (120 mM NaCl, 4.7 mM KCl, 2.2 mM CaCl2, 1.2 mM MgCl2, 25 mM HEPES, 1.2 mM MgSO4, 1.2 mM KH2PO4, 10 mM glucose).
Oxygen consumption studies (oximetry). O2 consumption studies on synaptosomes are carried out. […] Studies were carried out to optimize the concentration of synaptosomal protein required, and to confirm stability and viability of synaptosomes and their mitochondria for up to 6 h.

[2] = system: PV-interneurons in mouse prefrontal cortex; assay: two-day ketamine treatment of mice: oxidized DHE, parvalbumin and GAD67 in prefrontal cortex; assay type: in vivo
Procedure: Animals and treatments. […] Male C57BL6 mice were obtained from Jackson Labs, Bar Harbor, Me., at 8-12 weeks and housed in our facility until 15 weeks when they were used for experiments. Ketamine (30 mg/kg) was applied intraperitoneally (IP) on two consecutive days at around 4 pm. DHE was applied 30 min after the last ketamine injection as described (19, 20). Briefly, two serial i.p. injections of freshly prepared dihydroethidium (27 mg/kg) are given at 30 minute intervals. Eighteen hours later, mice are anesthetized with inhaled halothane, and perfused intracardially with cold saline followed by 4% paraformaldehyde in PBS. The Nox inhibitor, apocynin (5 mg/kg/day) was given in the drinking water for a total of seven days, with an assumed intake of […] H2O/mouse/day, and ketamine was applied on the last two days. […] All animal studies were approved by the Animal Care Program at the University of California, San Diego, and are in accordance the PHS Guide for the Care and Use of Laboratory Animals, USDA Regulations, and the AVMA Panel on Euthanasia.
Immunohistochemistry: Brains were frontally sliced in a vibratome into 50 μm coronal sections encompassing the prefrontal cortex region (from Bregma 2.0 to 1.3). Sequential slices were processed for floating-section double immunohistochemistry for the detection of parvalbumin and GAD67. Antigen retrieval was performed by incubation of the slices in 1% sodium borohydride for 15 min as described (see reference 34, below), followed by washing in PBS and incubation in 10% normal goat serum in PBS for 16 h at 4° C. Primary antibodies (Calbindin: 1:5000: Calretinin: 1:2000; Parvalbumin: 1:3000, all rabbit polyclonals from Swant, Bellinzona, Switzerland. GAD67: 1:1000, from Chemicon-Millipore, Temecula, Calif.) were diluted in 2% normal goat serum in PBS and applied to the slices for 18 h at 4° C., after which slices were washed in PBS and incubated in a 1:1000 dilution of ALEXAFLUOR™ (Molecular Probes, Invitrogen, Carlsbad, Calif.) conjugated goat anti-rabbit (568) or goat anti-mouse (488) antibodies for 1 hr at room temperature (rt). Slices were washed in PBS and mounted sequentially in glass slides using […]™ (Vector Laboratories, Burlingame, Calif.), covered with a coverslip and allowed to dry for at least 24 h before confocal imaging.
Six slices were analyzed per animal.
Analysis of superoxide and/or hydrogen peroxide production by confocal imaging of in vivo dihydroethidium (DHE) oxidation. Mice will be injected intraperitoneally (i.p.) with dihydroethidium.

[3] = target: T1, NADPH oxidase (Mus musculus, UniProt Q61093); assay: EPR superoxide production by forebrain synaptosomes exposed to IL-6; assay type: biochemical; details: apocynin 0.4 mM applied 5 min before IL-6
T1 sequence (Q61093 1-570): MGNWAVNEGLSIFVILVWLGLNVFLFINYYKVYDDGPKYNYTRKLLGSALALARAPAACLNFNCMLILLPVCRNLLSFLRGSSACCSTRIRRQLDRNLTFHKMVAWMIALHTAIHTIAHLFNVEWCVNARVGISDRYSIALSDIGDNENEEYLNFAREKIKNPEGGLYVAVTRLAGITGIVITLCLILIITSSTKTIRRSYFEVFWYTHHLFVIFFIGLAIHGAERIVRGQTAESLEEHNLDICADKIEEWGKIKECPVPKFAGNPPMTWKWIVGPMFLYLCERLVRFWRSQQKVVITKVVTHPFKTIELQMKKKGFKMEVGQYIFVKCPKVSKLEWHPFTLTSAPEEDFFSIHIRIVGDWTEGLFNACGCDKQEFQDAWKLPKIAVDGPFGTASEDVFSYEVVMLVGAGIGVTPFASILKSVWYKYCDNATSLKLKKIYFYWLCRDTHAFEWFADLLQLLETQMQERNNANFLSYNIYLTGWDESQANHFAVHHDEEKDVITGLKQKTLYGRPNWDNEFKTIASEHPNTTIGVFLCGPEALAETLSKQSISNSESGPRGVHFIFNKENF
T1 sequence (Q61462 1-192 partner): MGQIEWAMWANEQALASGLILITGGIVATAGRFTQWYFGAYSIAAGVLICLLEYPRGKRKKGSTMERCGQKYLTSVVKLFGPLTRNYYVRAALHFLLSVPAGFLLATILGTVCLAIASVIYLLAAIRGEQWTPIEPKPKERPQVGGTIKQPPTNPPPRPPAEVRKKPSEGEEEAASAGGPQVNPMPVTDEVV

[4] = system: pyramidal layer of CA1 in the aged hippocampus; assay: in vivo superoxide production in CA1 of the aged hippocampus (DHE confocal imaging); parameters: species or system mouse; details: old mice; C3 by oral administration; apocynin
Procedure: Analysis of superoxide and/or hydrogen peroxide production by confocal imaging of in vivo dihydroethidium (DHE) oxidation. Mice will be injected intraperitoneally (i.p.) with dihydroethidium. Briefly, two serial i.p. injections of freshly prepared dihydroethidium (27 mg/kg) are given at 30 minute intervals. Eighteen hours later, mice are anesthetized with inhaled halothane, and are perfused intracardially with cold saline followed by 4% paraformaldehyde in PBS. Brains are removed and post-fixed in 2% paraformaldehyde for >24 h. Following fixation, brains are cut into 50 μm coronal sections and co-labeled with the appropriate primary and secondary antibodies for fluorescence visualization. […] First, an image is taken in the fluorescence channel of the ICC-fluorophor and then the channel is switched to image fluorescence from DHE oxidation. […] Using the image pairs for each field and MetaMorph software, an analyst blind to the group circles the outline of each ICC-labeled cell and then switches to the DHE oxidation image. The average fluorescence intensity for each cell of interest is logged, and values averaged to determine the mean fluorescence/cell.

[5] = apocynin 5 mg/kg/day 1 week in drinking water, C3 1.0 mg/kg/day one month by mini-pumps

COc1cc(C(C)=O)ccc1O [apocynin, 4-hydroxy-3-methoxyacetophenone]
block of NADPH-induced O2 consumption ([1]; 200 μM apocynin, synaptosomes, 5 mM NADPH): > 90%
effect on increased Nox activity in synaptosomes from ketamine treated animals ([1]; apocynin added in vitro): inhibited
effect on ketamine-induced increase in oxidized DHE in vivo [2, 5]: prevented
effect on ketamine-mediated loss of parvalbumin immunoreactivity in PV-interneurons in vivo [2, 5]: completely prevented
effect on ketamine-mediated decrease in parvalbumin and GAD67 immunoreactivity in PFC ([2]; apocynin in the drinking water): prevented
effect on IL-6-induced increase in superoxide (EPR) [3]: completely blocked
effect on elevated levels of superoxide in the pyramidal layer of CA1 in the aged hippocampus [4]: prevented
